Laboratory results: patent publication US20250339391A1, “METHODS FOR EFFECTIVE MANAGEMENT OF PAIN” (South Rampart Pharma, Inc., priority 2024, published 2025)
“Also recorded” adds a separate entry of the source.

Key:
Sprague-Dawley rats [1] = test: CFA inflammatory pain / von Frey with electronic detection (eVF); assay type: in vivo, rat; settings: for antinociceptive activity, SRP-001 versus ApAP: 32 and 100 mg/kg, young and aged rats
Experimental: In this model of mechanonociception, one hind paw at a time is stimulated with an electronic von Frey (eVF) filament (noxious source) until the animal retracts the paw from the mechanical stimulus. von Frey tests were conducted in a dedicated room at the LSUHSC New Orleans Neuroscience Center of Excellence vivarium. Rats were acclimated to their environment for 2 days for 30 min/day prior to testing. To obtain eVF pressure recordings, each animal was placed in an individual plastic observation compartment on a perforated metallic grid platform, which provided access to the plantar surface of the hind paws. After acclimation to the environment for 30 min, mechanical hypersensitivity was assessed by stimulating the mid-plantar area of each hind paw with a rigid tip von Frey filament attached to the eVF meter (Ugo Basile 38450) until animals withdrew the paw from the filament. The withdrawal threshold was defined as the average force/pressure (g) required for the rat to withdraw the stimulated paw. A brisk withdrawal of the paw (often followed by a sustained retraction and/or licking) was considered a positive response, but paw withdrawals due to locomotion or weight shifting were not counted. The von Frey studies were conducted with an eVF device that electronically registers the grams of force necessary to elicit paw withdrawal in order to eliminate bias that confounded previous older versions of this test. Baseline withdrawal thresholds of both the right and left paws were recorded, and animals were assigned to different treatment groups so that each group had approximately equal withdrawal threshold averages in both paws. […] Doses at concentrations of 32 mg/kg and 100 mg/kg were tested in a cumulative dose-response manner and given at an interval of 60 min, and paw withdrawal threshold readings were measured using eVF as described above.

[2] = system: CD1 (young male and female) or C57BL/6 (aged male) mice; test: Acetic acid-induced abdominal writhing visceral pain assay; assay type: in vivo, mouse; settings: for analgesia in acetic acid-induced writhing assay: 100 mg/kg, all cohorts; for antinociception in acetic acid writhing: 32 and 100 mg/kg PO, 0.4% acetic acid ip
Experimental: In this model of visceral pain, abdominal contraction (writhing) in which contraction of the abdominal muscles and stretching of the hind limbs is induced in mice in response to an ip injection of 0.4% acetic acid at a dose of 10 mL/kg 25 min after drug administration is assessed. Specifically, the number of writhes is counted for 10 min beginning 5 min after acetic acid injection. […] CD1 (young male and female) or C57BL/6 (aged male) mice were used. For the abdominal writhing assays, we used n=35 aged male mice, n=70 young male mice, and n=70 young female mice.

Sprague-Dawley rats [3] = test: CFA-induced inflammatory pain / Hargreaves thermal sensitivity assay; assay type: in vivo, rat; settings: for analgesia, paw withdrawal latencies: 100 mg/kg
Source text: In these same cohorts of animals, we simultaneously measured their thermal nociception to hyperalgesia with the Hargreaves test using the plantar test apparatus (Ugo Basile 37570). In this experimental setup, the rodents are placed in plastic cages on top of a glass surface, and their hind paws are subjected to an infrared heat stimulus. One hind paw at a time is stimulated with the light source (noxious stimuli) until the animal retracts the paw from the glass surface because of the stimulus. Baseline withdrawal thresholds (latency) of both the right and left paws were recorded, and animals were assigned to different treatment groups so that each group had approximately equal withdrawal threshold averages in both paws. After baseline testing, treated animals received subcutaneous plantar injection (150 μl) of 50% CFA into the left hind paw, while control animals received a plantar injection (150 μl) of 0.9% NaCl into their left hind paw. CFA induces inflammation, resulting in a left hind paw that is hypersensitive to the thermal stimulus, while the right hind paw serves as a within-subject baseline for each animal. To obtain Hargreaves withdrawal latency recordings, each animal was placed in an individual plastic observation compartment on a glass platform, which provided access to the plantar surface of the hind paws from underneath. After acclimation to the environment for 30 min, thermal hypersensitivity was assessed by stimulating the mid-plantar area of each hind paw with a bright light source attached to the meter (Ugo Basile 37570) until animals withdrew the paw from the surface. The withdrawal threshold was defined as the average time (s) required for the rat to withdraw the stimulated paw. A brisk withdrawal of the paw (often followed by a sustained retraction and/or licking) was considered a positive response, but paw withdrawals due to locomotion or weight shifting were not counted. The Hargreaves studies were conducted with the plantar stimulation device that automatically registers the time (s) necessary to elicit paw withdrawal in order to eliminate bias in determining paw withdrawal thresholds. A cutoff of 20 s is pre-programmed so that the light source shuts off at that maximal period so as to not induce any burns on the plantar surface of the rodents. The Hargreaves test permits measurement of ipsilateral and contralateral heat thresholds, allowing each animal to serve as its own internal control in unilateral pain models. In addition, the Hargreaves test enables quantification of heat thresholds in unrestrained animals, reducing the likelihood of stress-induced responses.

AM404 = test: LC-MS/MS quantification of AM404 production in periaqueductal gray; assay type: in vivo; settings: rat, 32 mg/kg IP, 30 min, with CFA or vehicle
Experimental: Deuterated compound D10-SRP-001 was synthesized by Olon Ricerca Bioscience (Concord, OH), and purity was determined to be >99.9% by HPLC. This was used as pure analytical standard for detection of SRP-001 using an LC-MS/MS method. Similarly, pure analytical standard of AM404 (10 ng/mL) obtained from Cayman Chemical (Ann Arbor, MI) was used to characterize the full fragmentation pattern of AM404. […] Thirty min post-injection, the animals were sacrificed (same as in the CFA/von Frey model), their brains harvested, and the midbrain periaqueductal gray (PAG) region excised. SRP-001 or AM404 were extracted from the PAG using a liquid-liquid extraction method using 1:1 MeOH:H2O for LC-MS/MS and were loaded onto a liquid chromatography-tandem mass spectrophotometer for analysis. The mass spectrophotometer was operated in multiple reaction monitoring (MRM) mode using positive ion electrospray. D10-SRP-001 was detected by monitoring the m/z transition 416→186. AM404 was detected by monitoring the m/z transition 396→287.

[4] = young male and young female rats

Row | Structure (SMILES) | antinociceptive activity, SRP-001 versus ApAP (Sprague-Dawley rats [1]) | analgesia in acetic acid-induced writhing assay [2] | antinociception in acetic acid writhing [2] | analgesia, paw withdrawal latencies (Sprague-Dawley rats [3]; aged male rats) | analgesia, paw withdrawal latencies (Sprague-Dawley rats [3]; [4]) | AM404 production in the PAG (AM404) | equimolar (μmol/kg) ED50 / dose-response curve relative to ApAP (Sprague-Dawley rats [1]; von Frey, non-linear regression) | equimolar (μmol/kg) ED50 / dose-response curve relative to ApAP ([2]; acetic acid writhing) | antinociception in Hargreaves assay (Sprague-Dawley rats [3]; young female and male rats and aged male rats) | AM404 production in the PAG (AM404; 32 mg/kg)
1 | CC(=O)Nc1ccc(O)cc1 [ApAP, acetaminophen] | comparable antinociceptive activity; also recorded: comparable analgesic activity | significant analgesia | experienced antinociception | significant analgesia | significant analgesia | diminished |  |  |  | 
2 | CCN(CC)C(=O)c1ccccc1S(=O)(=O)NCC(=O)Nc1ccc(O)cc1 [SRP-001, N,N-diethyl-2-[[2-(4-hydroxyanilino)-2-oxo-ethyl]sulfamoyl]benzamide] | comparable antinociceptive activity; also recorded: more efficacious than ApAP; also recorded: comparable analgesic activity | significant analgesia | experienced antinociception | significant analgesia | significant analgesia |  | shifted curves to the left; also recorded: comparable or improved ED50; also recorded: clear shift to the left | comparable or improved ED50; also recorded: shifted to the left; also recorded: clear shift to the left | Antinociception was also confirmed | highest AM404 production; also recorded: produces more AM404 than ApAP
